Assay results published in patent US10561629B2, “Food containing glycine and use thereof” (AJINOMOTO CO., INC., priority 2004, dated 2020).
Where two headings read alike, the source gives them in different places.

How the values were obtained:
[1] = for mental condition on waking: improved in comparison with placebo / mental condition on waking: no change in comparison with placebo / mental condition on waking: worsened in comparison with placebo / physical condition on waking: improved in comparison with placebo / physical condition on waking: no change in comparison with placebo / physical condition on waking: worsened in comparison with placebo: 3 g 1 hr before bedtime
Experimental: A double-blind crossover test aiming at confirmation of the effect of glycine on sleep was performed with 15 female adults (20s-50s, body weight 46-58 kg). The test participants took glycine (granule containing citric acid and the like) in an amount equivalent to 3 g of glycine 1 hr before bedtime, and reduced maltose containing components other than glycine (citric acid and the like) and adjusted to an almost indistinguishable taste was used as a placebo. For the test, glycine and placebo were each taken for 4 days with an interval of a 3 day non-intake period, totaling 2 weeks.
In the Table, the values of glycine and placebo show the test participant average of the points of evaluation in 8 levels in the sleep questionnaire “depth of sleep”. […] In addition, the p value is a statistical value showing the probability when the difference between glycine and placebo was hypothesized to be null. Particularly, this value of 0.05 or below is considered to indicate a significant difference.
(4) At the end of each 1 week test period, a question was asked about the soundness of sleep.

[2] = for Heavy sleepiness (1 pm to 5 pm next afternoon) / Mild sleepiness (1 pm to 5 pm next afternoon) / No sleepiness (1 pm to 5 pm next afternoon): intake of glycine 1.5 g before sleep
Source text: Three test participants (test participants A-C, body weight 64-74 kg) who were then visiting the U.S. for 5 days took glycine (1.5 g, substantially pure tablet glycine containing only excipient and flavor) before sleep and evaluated the sleepiness felt from 1 pm to 5 pm the next afternoon in 3 levels as compared to the absence of glycine.

[3] = Source text: Table 5 reports the bowel movements on the next morning and the corresponding number of days.
[4] = test participant A, in water before bed
Source text: The test participant A (body weight 45 kg) took glycine (substantially pure powder) in an amount shown in Table 6 before going to bed by dissolving same in water, and recorded the level of realization of deep sleep. When the realization of deep sleep increased than usual, “+” was marked, when the realization of deep sleep was almost the same as usual, “±” was marked and when it became worse, “−” was marked.

[5] = 3 g 1 hr before bedtime
Experimental: A double-blind crossover test aiming at confirmation of the effect of glycine on sleep was performed with 14 male adults (body weight 64-112.5 kg, average 81.2 kg) concerned about snoring and apnea condition during sleep. The test participants took glycine (granules containing citric acid and the like) in an amount equivalent to 3 g of glycine 1 hr before bedtime, and reduced maltose containing components other than glycine (citric acid and the like) and adjusted to an almost indistinguishable taste was used as a placebo.
(1) For the evaluation of sleep condition, overnight polysomnography was used for the measurement.
In addition, the sleep condition of the night before was examined on waking using the sleep questionnaire.

[6] = participants 32 years old or older (6)
[7] = participants with PSQI not less than 9 (7)
[8] = SAM lassitude check list, 4-day total, difference by 1 point or more vs placebo, 15 participants
[9] = SAM lassitude check list, 4-day total, difference by 4 points or more vs placebo, 15 participants
[10] = out of 15 participants, end of each 1 week test period
[11] = participants 32 years old or older
[12] = test participant A, tablet intake (1 g) before bed
[13] = test participant B, intake (3 g) with yoghurt before bed
[14] = test participant B, powder intake (3 g) before bed

## NCC(=O)O [glycine, Glycine]
[1]; [6]
  mental condition on waking: improved in comparison with placebo: 5 person
  mental condition on waking: no change in comparison with placebo: 1 person
  mental condition on waking: worsened in comparison with placebo: 0 person
  physical condition on waking: improved in comparison with placebo: 5 person
  physical condition on waking: no change in comparison with placebo: 1 person
  physical condition on waking: worsened in comparison with placebo: 0 person
[1]; [7]
  mental condition on waking: improved in comparison with placebo: 5 person
  mental condition on waking: no change in comparison with placebo: 2 person
  mental condition on waking: worsened in comparison with placebo: 0 person
  physical condition on waking: improved in comparison with placebo: 5 person
  physical condition on waking: no change in comparison with placebo: 1 person
  physical condition on waking: worsened in comparison with placebo: 1 person
[1]; [8]
  Increase of lassitude on waking, effective criterion: 3 participants
  No change of lassitude on waking, effective criterion: 1 participants
  Reduction of lassitude on waking, effective: 11 participants
[1]; [9]
  Increase of lassitude on waking, remarkably effective criterion: 2 participants
  No change of lassitude on waking, remarkably effective criterion: 6 participants
  Reduction of lassitude on waking, remarkably effective: 7 participants
[1]; average points, 8 levels, participants 32 years old or older, placebo 4.13, P value 0.042
  Sleep questionnaire "depth of sleep": 4.88
[1]; [10]
  soundness of sleep: participants answering that both were the same: 8 participants
  soundness of sleep: participants answering the week of glycine intake was fine: 6 participants
  soundness of sleep: participants answering the week of placebo intake was fine: one
[1]; [11]
  Effect of clearing head the next morning: effective in comparison with placebo: 5 person
  Effect of clearing head the next morning: no change in comparison with placebo: 1 person
  Effect of clearing head the next morning: worsened in comparison with placebo: 0 person
[2]; all three test participants, 1.5 g before sleep, compared to absence of glycine
  sleepiness during the next daytime: felt a lower level of sleepiness
[2]; test participant A
  Heavy sleepiness (1 pm to 5 pm next afternoon): 0 days
  Mild sleepiness (1 pm to 5 pm next afternoon): 2 days
  No sleepiness (1 pm to 5 pm next afternoon): 2 days
[2]; test participant B
  Heavy sleepiness (1 pm to 5 pm next afternoon): 0 days
  Mild sleepiness (1 pm to 5 pm next afternoon): 1 days
  No sleepiness (1 pm to 5 pm next afternoon): 2 days
[2]; test participant C
  Heavy sleepiness (1 pm to 5 pm next afternoon): 0 days
  Mild sleepiness (1 pm to 5 pm next afternoon): 0 days
  No sleepiness (1 pm to 5 pm next afternoon): 1 days
[3]; [12]
  No bowel movement (next morning): 2 days
  Presence of bowel movement (next morning): 10 days
[3]; [13]
  No bowel movement (next morning): 0 days
  Presence of bowel movement (next morning): 4 days
[3]; [14]
  No bowel movement (next morning): 1 days
  Presence of bowel movement (next morning): 7 days
[4]; 1/1 teaspoon, general amount 2.5 g
  Realization of deep sleep: +
[4]; ¼ teaspoon, general amount 0.6 g
  Realization of deep sleep: +
[4]; ½ teaspoon, general amount 1.2 g
  Realization of deep sleep: +
[5]; early stage (1 hr) of sleep onset, placebo 6.4, p value 0.020
  slow wave sleep (%) in sleep onset initial stage: 12.0%
[5]; placebo 16.3, p value 0.322
  lights-out - sleep onset: 13.3 min
[5]; placebo 103.4, p value 0.042
  lights-out - slow wave sleep: 52.2 min
